# Data reported in patent publication US6627641B1, “Antimalarial naphthylisoquinoline alkaloids and pharmaceutical compositions and medical uses thereof” (The United States of America as represented by the …, priority 1994, dated 2003).
# Assays:
# [1] = tested on: P. falciparum (NF54 strain, clone A149); assay: In vitro 3H-hypoxanthine incorporation test with P. falciparum NF 54; type: cell-based, Plasmodium falciparum; conditions: NF 54, clone A149; six repeats; max. concentration 50 or 5 μg/ml
# Procedure: Continuous in vitro cultures of asexual erythrocytic stages of P. falciparum (strain NF 54/64, clone A1A9) were maintained following essentially the method of Trager and Jensen (Science, 193, 673-675, 1976) at 37° C. under an atmosphere of 5% CO2, 5% O2, and 90% N2. The host cells were human erythrocytes (A or O Rh+). The culture medium was RPMI 1640 (Gibco), containing HEPES (BDH; 4.57 gL^−1), glucose (Sigma; 1.54 gL^−1), 5% NaHCO3 (Merck; 34.78 mlL^−1), and gentamycin (Merck; 8.70 mlL^−1) supplemented with 10% human plasma (A Rh+). Parasites were subinoculated every 3-4 days with initial conditions of 1% parasitemia and 1% hematocrit.
# (§1) In vitro testing with P. falciparum was as follows. Each compound was dissolved in DMSO at a concentration of 20 mg ml^−1. These solutions were further diluted with physiological saline to obtain a stock solution of 500 μg ml^−1. Each test substance was applied in a series of seven, 4-fold dilutions (maximum concentrations 50 or 5 μg ml^−1). Each compound was tested in 6-fold repeats. Chloroquine was tested similarly, as a positive control.
# (§2) The test protocol was performed in vitro, based upon the method of Desjardins, et al. (Antimicrobial Agents Chemother., 16, 710-715, 1979). The parasites (200 μl of a suspension with initial parasitemia of 0.5% and hematocrit of 1.5%) were incubated for 24 h in microtitre plates (Falcon MicroTest III) in hypoxanthine-free medium in the presence of 25 μl of test solution. The plates contained a negative control (6 wells with non-parasitized RBC's, no drug) and a positive control (6 wells with parasitized RBC's no drug). Thereafter, 25 μl of ^3H-hypoxanthine solution (Amersham) was added (0.5 μCi well ^−1), and the parasites were incubated for a further period of 18 h. Each well was harvested with a Cell Harvester (Nunc). The filter papers were dried for 2 h at 52° C., and their radioactivity was measured by liquid scintillation counting in Optiscint HiSafe (LKB Pharmacia).
# (§3) The mean results, obtained as counts per min (cpm), were expressed as percentages of incorporation or growth inhibition. The sigmoid dose-response curve was then linearized by probit analysis with the aid of software provided by IWONL (Gent), adapted by G. Timperman and used to derive the IC50 values.
# P. berghei (Anka) = assay: In vitro 3H-hypoxanthine incorporation test with P. berghei (Anka); type: cell-based, Plasmodium berghei; conditions: Anka strain
# Procedure: as §1, §2, §3
# For experiments with P. berghei (Anka strain), the parasites were maintained, and the in vitro tests performed essentially the same as above, except for the following modification. In the case of tests using P. berghei, the parasites were incubated in the same conditions as for P. falciparum (above) except that the incubations were started immediately in the presence of the ^3H-hypoxanthine and for 24 hour total duration (i.e., no delay in the addition of the ^3H-hypoxanthine). As before, the incorporated radioactivity was used as a-measure for parasite growth.
# [2] = tested on: P. falciparum (K1 strain); assay: In vitro 3H-hypoxanthine incorporation test with chloroquine-resistant P. falciparum K1; type: cell-based, Plasmodium falciparum
# Procedure: Selected compounds were also tested against drug-resistant parasites. The method was the same as above except for the following modifications. The parasite used was the chloroquine-resistant strain, K1, maintained essentially according to Desjardins, et al. (supra, 1979). The culture medium was RPMI-1640 containing TES (Sigma; 7.64 gL^−1), glucose (BDH; 1.67 gL^−1), NaHCO3 (BDH; 1.94 gL^−1), and gentamycin (Nicholas; 30 mgL^−1) supplemented with 10% human serum (A RH+). Parasites were subinoculated every 3-4 days with initial conditions of 1% parasitemia and 2.5% hematocrit. For the testing, small aliquots of test material were dissolved in 20 μl EtOH and RPMI 1640 to give solutions of 1 or 10 mg ml^−1. Each was applied in a series of twelve, […] dilutions (final […] ranging from 50 to 1.19×10^−3 μg ml^−1). Chloroquine diphosphate (Sigma) was used in the same experiments as a reference and also in twelve, 4-fold dilutions (final concentrations 2×10^−5-1.19×10^−12M). Each compound was tested in duplicate.
# Testing was performed in vitro based upon the method of Desjardins, et al (supra, 1979), as modified by O'Neill, et al. (Planta Med., 51, 394-399, 1985) and Ekong, et al. (Biochem. Pharmacol., 40, 297-301, 1990). The parasites (50 μl initial parasitemia of 1%, hematocrit of 5%) were incubated for 24 h in microtitre plates (Nunc) in normal (not hypoxanthine-depleted) medium in the presence of 50 μl of test solution. Controls were set up in each test by preparing 12-24 wells with non-parasitized RBC's and no test solution and 12-24 wells with parasitized RBC's and no test compound. Thereafter, 5 μl all of ^3H-hypoxanthine (Amersham) were added (0.2 μCi well ^−1), and the parasites incubated for a further period of 18 h. Each well was harvested with a Cell Harvester (Skatron). Glass fibre filters were dried briefly. Radioactivity was measured by liquid scintillation counting in Ecoscint (National Diagnostics).
# The results obtained as cpm were expressed as percentages of incorporation of growth inhibition. The dose-related part of the sigmoidal curves obtained were linearized by regression analysis with the aid of software developed by S. Grant (I.SHTM) and used to calculate the IC50 values.
# [3] = tested on: Plasmodium berghei (Anka strain); assay: In vivo antimalarial test in OF1 mice inoculated with P. berghei; conditions: 50 mg/kg oral on days 0, 1, 2, 3, OF1 mice; for Parasitemia (%) from blood smears at day 4: N=6
# Procedure: Outbred, female, six-week-old OF1 mice (six mice per group treated and nontreated [control]) were inoculated intraperitoneally on day 0 with 10^6 P. berghei (Anka strain) blood forms. Two hours later, they were administered orally 50 mg/kg of dioncopeltine A or dioncophylline B. A second, third, and fourth treatment (50 mg/kg each) was given after 24, 48 and 72 h, respectively (days 1, 2, and 3). […] The parasitemia (%) in the control (not drug-treated) group was 3.50 (range 3.02-3.97; N=6). In the dioncopeltine A treated group, the parasitemia was 0.03 (range 0.01-0.06; N=6); in the dioncophylline B treated group, the parasitemia was […] (range 0.66-3.07; N=6).
# The in vivo antimalarial testing was performed as described above, except that more doses and different treatment schedules were employed, as described in Tables 3 and 4.
Compound,IC50 P. falciparum NF54 strain [1] [µg/mL],"IC50 P. berghei, Anka (P. berghei (Anka)) [µg/mL]","IC50 P. falciparum, K1 strain [2] [µg/mL]",Signs of toxicity or other side effects [3],Parasitemia (%) from blood smears at day 4 [3] [%]
6-O-demethyl-8-O-methyl-7-epi-ancistrobrevine C,10.326,,,,
6-deoxy-N-methyl-ancistrocladine,10.079,,,,
7-epi-dioncophylline A,0.190,,,,
"COc1cccc2c(-c3ccc4c(c3O)C(C)N(C)C(C)C4)c(C)cc(OC)c12 (single isomer, unassigned) [N-methyl-dioncophylline A (atropisomers)]",17.411,,,,
COc1c(-c2c(C)cc(OC)c3c(O)cccc23)ccc2c1C(C)NC(C)C2 (stereo not drawn) [8-O-methyl-5′-O-demethyl-7-epi-dioncophylline A],1.584,4.580,,,
COc1c(C)nc(C)c2c(OC)c(-c3c(C)cc(OC)c4c(OC)cccc34)ccc12 [(±)-dioncophyllacine A],17.571,,,,
COc1cc2c(c(OC)c1-c1ccc(OC)c3c(OC)cc(C)cc13)[C@@H](C)N(C)[C@@H](C)C2 [Ancistrobrevine A],19.336,,,,
COc1cc(O)c(-c2c(C)cc(OC)c3c(OC)cccc23)c2c1[C@H](C)N[C@@H](C)C2 [Ancistrocladine],18.353,>50,25.350,,
COc1cc(CO)c(-c2ccc3c(c2O)[C@@H](C)N[C@H](C)C3)c2cccc(O)c12 [Dioncopeltine A],0.021,0.038,0.330,In neither of the treated groups were any signs of toxicity or other side effects observed,0.03
COc1cccc2c(-c3ccc4c(c3O)[C@@H](C)N[C@H](C)C4)c(C)cc(OC)c12 [Dioncophylline A],1.443,0.961,0.860,,
COc1cc(C)cc2ccc(-c3ccc4c(c3O)[C@@H](C)N[C@H](C)C4)c(O)c12 [Dioncophylline B],0.224,0.228,0.063,,1.86
